From patent EP0497921B1, “METHOD FOR INHIBITING ENZYMATIC SYNTHESIS OF NUCLEIC ACIDS USING ISOPSORALENS” (ISAACS, Stephen T., priority 1989, dated 1991)

What was measured:
Experiment in all cases: Primer extension on site-specific 71-mer monoadduct template
Format in all cases: biochemical
Conditions in all cases: 37°C for 0, 5 or 15 minutes, PAGE, autoradiography
E. Coli DNA Polymerase = system: E. Coli DNA Polymerase
Description: (§1) The sequences that are presented in Figure 26 describe several oligonucleotides that are used in the synthesis of either a normal 71-mer or the identical 71-mer containing a site-specifically placed psoralen or isopsoralen monoadduct. The 71-mer is a sub-sequence of the Human Immunodeficiency Virus (HIV) sequence. (An HIV DNA system is described in a co-pending application, Serial No. 225,725.) SK-39 is a primer oligonucleotide that is complementary to the 3' end of the 71-mers. This primer oligonucleotide can be extended on the 71-mer template to make a complementary strand of the 71-mer.
(§2) Preparation of 71-mers which contain site-specific monoadducts involves 1) preparation of different 15-mer monoadducts from the same unmodified 15-mer (HRI-42), and 2) ligation of the different 15-mer monoadducts to the same 56-mer "extender oligonucleotide" (HRI 102) using a 25-mer oligonucleotide (HRI-45) as a splint. The arrows in Figure 27 indicate the direction of synthesis, while the monoadduct is indicated by a short line that is perpendicular to the oligomer. While each of the 71-mer monoadducts contains the adduct at a base position that is greater than 56 bases from the 5' end, the precise position of the monoadduct is not meant to be indicated.
(§3) To prepare the 15-mer adducts, the 15-mer was incubated with a complementary 10-mer along with psoralen or isopsoralen under hybridization conditions. The mixture was then irradiated to provide the monoadducted 15-mer. While the invention is not dependent on knowing the precise mechanism of coupling, it has generally been believed that the 10-mer directs the isopsoralen to a single TpA site within the double-stranded helix formed by the 10-mer/15-mer hybrid. After isolation of an HPLC peak believed to contain the 15-mer with a single psoralen or isopsoralen monoadduct, these 15-mer monoadducts were ligated to a 56-mer extender in order to provide the monoadducted 71-mers for use as polymerase templates. The ligation reaction therefore utilized three oligonucleotides: the particular psoralen or isopsoralen monoadducted 15-mer, the 56-mer extender, and the 25-mer splint. The ligation complex was hybridized together then ligated. The ligated product was then isolated as a single band by denaturing PAGE.
(§4) To provide highly purified 71-mers which contain a single monoadduct, it was necessary to provide highly purified 15-mer monoadduct prior to the ligation step. This was accomplished by repurification of the HPLC purified monoadducted 15-mers by PAGE. In this way, essentially all the non-monoadducted 15-mer was removed prior to ligation. Separation of 15-mer monoadduct from unmodified 15-mer was readily accomplished by PAGE (while the same technique is not effective for separation of the corresponding unmodified 71-mer and monoadducted 71-mer sequences). In this manner, exceedingly pure monoadducted 71-mers were produced for the primer extension reactions; monoadducted 71-mers (as well as unmodified 71-mers) are used in template-dependent enzymatic extension experiments in examples 43-47 below.
(§5) In this experiment, monoadducted 71-mers (as well as unmodified 71-mers) were used in template-dependent enzymatic extension. AMIP, AMDMIP, and MIP 71-mer monoadducts were made as in Example 17. […] Note that the 3' end of the 71-mer (HRI 55) is complementary to the primer (SK-39) (see also Figure 26). Each of the extension experiments were run at 37°C for 0, 5 or 15 minutes. Each of the reactions were initiated by providing the templates and deoxyribonucleoside 5'-triphosphates (dATP, dGTP, dCTP, and dTTP are collective abbreviated as dNTPs), and by adding the particular polymerase last to start the reaction. For detection, the primer extension reaction utilized 5' ^32P-labelled primer. The reactions were stopped by adding EDTA. Analysis was by denaturing PAGE followed by autoradiography. […]

Klenow Polmerase = system: Klenow Polmerase
Description: as §1, §2, §3, §4, §5

T4 Polymerase = system: T4 Polymerase
Description: as §1, §2, §3, §4, §5

Reverse Transcriptase = system: Reverse Transcriptase
Description: as §1, §2, §3, §4, §5

Sequence of E. Coli DNA Polymerase (P00582 whole entry): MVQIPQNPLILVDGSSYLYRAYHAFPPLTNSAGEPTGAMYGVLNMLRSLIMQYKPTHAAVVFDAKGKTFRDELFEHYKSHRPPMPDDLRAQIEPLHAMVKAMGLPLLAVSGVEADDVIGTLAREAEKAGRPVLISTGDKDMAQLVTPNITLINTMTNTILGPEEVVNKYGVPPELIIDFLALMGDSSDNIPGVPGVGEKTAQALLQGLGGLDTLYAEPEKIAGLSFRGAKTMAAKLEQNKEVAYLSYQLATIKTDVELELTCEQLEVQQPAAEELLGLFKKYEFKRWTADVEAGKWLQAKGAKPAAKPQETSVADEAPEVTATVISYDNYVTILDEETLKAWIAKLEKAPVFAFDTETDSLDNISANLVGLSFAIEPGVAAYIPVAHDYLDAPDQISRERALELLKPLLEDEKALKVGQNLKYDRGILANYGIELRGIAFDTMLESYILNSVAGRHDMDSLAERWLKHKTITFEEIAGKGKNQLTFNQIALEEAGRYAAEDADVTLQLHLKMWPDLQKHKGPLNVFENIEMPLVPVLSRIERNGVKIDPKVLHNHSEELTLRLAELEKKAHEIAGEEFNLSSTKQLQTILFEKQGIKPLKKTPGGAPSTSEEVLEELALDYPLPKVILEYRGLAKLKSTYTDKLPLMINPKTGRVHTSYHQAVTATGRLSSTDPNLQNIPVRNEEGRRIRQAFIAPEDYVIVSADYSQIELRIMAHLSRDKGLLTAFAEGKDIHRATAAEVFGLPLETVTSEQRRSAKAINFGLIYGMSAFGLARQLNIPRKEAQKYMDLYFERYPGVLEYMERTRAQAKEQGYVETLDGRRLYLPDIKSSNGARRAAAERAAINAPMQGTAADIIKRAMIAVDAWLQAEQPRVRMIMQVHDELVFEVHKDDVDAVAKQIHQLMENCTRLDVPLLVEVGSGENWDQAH

Molecule	polymerase stop at adduct (primer extension) (E. Coli DNA Polymerase)	polymerase stop at adduct (primer extension) (Klenow Polmerase)	polymerase stop at adduct (primer extension) (T4 Polymerase)	polymerase stop at adduct (primer extension) (Reverse Transcriptase)
5-Aminomethylisopsoralen [AMIP]	not complete stops	not complete stops	complete stops	complete stops
4'-Aminomethyl-4,5'-dimethylisopsoralen [AMDMIP]	complete stop	complete stop	complete stop	complete stop
Cc1cc2occc2c2oc(=O)ccc12 [MIP, 5-Methylisopsoralen]	not complete stops	not complete stops	complete stops	complete stops
